Article PMC9699089 (Pathogens, 2022)

Columns and labels:
[1] = system: human duplex sequence FdxT; assay: FRET melting assay, duplex control FdxT; type: binding; conditions: tested at 0.5 μM, oligonucleotide 0.2 μM, K+ conditions
[2] = system: F21T (DNA, G4) GGGTTAGGGTTAGGGTTAGGG; assay: FRET melting; conditions: 10 mM KCl, 90 mM LiCl; 10 mM lithium cacodylate pH 7.2; 0.2 µM oligonucleotide, 0.5 µM compound
[3] = system: FdxT (DNA, hairpin, hexaethyleneglycol linker between position 10 and 11) TATAGCTATATATAGCTATA; assay: FRET melting; conditions: 10 mM KCl, 90 mM LiCl; 10 mM lithium cacodylate pH 7.2; 0.2 µM oligonucleotide, 0.5 µM compound
[4] = system: human telomeric sequence F21T G-quadruplex; assay: FRET melting assay, F21T; type: binding; conditions: tested at 0.5 μM, oligonucleotide 0.2 μM, K+ conditions
[5] = system: Plasmodium telomeric sequence FPf8T G-quadruplex; assay: FRET melting assay, FPf8T; type: binding, Plasmodium falciparum; conditions: tested at 0.5 μM, oligonucleotide 0.2 μM, K+ conditions
[6] = system: Plasmodium telomeric sequence FPf1T G-quadruplex; assay: FRET melting assay, FPf1T; type: binding, Plasmodium falciparum; conditions: tested at 0.5 μM, oligonucleotide 0.2 μM, K+ conditions
[7] = system: Trypanosoma 9 and 11 chromosomic sequence FTrypBT (FEBR1T) G-quadruplex; assay: FRET melting assay, FtrypBT; type: binding, Trypanosoma brucei brucei; conditions: tested at 0.5 μM, oligonucleotide 0.2 μM, K+ conditions
Method: These were performed with dual-labeled oligonucleotides mimicking the Plasmodium telomeric sequences FPf1T [FAM-5′(GGGTTTA)3-GGG3′-TAMRA] and FPf8T [FAM-5′(GGGTTCA)3GGG3′-TAMRA], the Trypanosoma 9 and 11 chromosomic sequence FTrypBT (also named FEBR1T) [FAM-5′[…]3′-TAMRA], the human telomeric sequence F21T [FAM-(GGGTTA)3-GGG3′-TAMRA] and the human duplex sequence FdxT [FAM5′-[…]-hexaethyleneglycol-[…]3′-TAMRA] [27, 31, 47]. The oligonucleotides were pre-folded in 10 mM lithium cacodylate buffer (pH 7.2), with 10 mM KCl and 90 mM LiCl (K^+ condition). The FAM emissions were recorded at 516 nm using a 492-nm excitation wavelength in the absence and presence of a single compound as a function of temperature (25 to 95 °C) in 96-well microplates using a Stratagene MX3000P real-time PCR device at a rate of 1 °C∙min-1. Data were normalized between 0 and 1, and the required temperature for half-denaturation of oligonucleotides corresponding to the emission value of 0.5 was taken as the Tm. Each experiment was performed in duplicate with 0.2 µM of labeled oligonucleotide and 2 µM of compound under K^+ condition. For each compound, three independent experiments were carried out.

C[n+]1cc(NC(=O)c2ccc3ccc4ccc(C(=O)Nc5cc6ccccc6[n+](C)c5)nc4c3n2)cc2ccccc21 [PhenDC3]
ΔTm FdxT [1]: 0.1 °C | ΔTm [2]: 26.3 ± 0.1 °C | ΔTm [3]: 0.1 ± 0.2 °C | ΔTm F21T [4]: 26.3 °C | ΔTm FPf8T [5]: 24.7 °C | ΔTm FPf1T [6]: 24.6 °C | ΔTm FtrypBT [7]: 19.2 °C
